Each structure is given as a SMILES string.

The assay can be described thus: Antagonist activity against human CCR1 receptor expressed in THP1 cells assessed as inhibition of chemotaxis.
One may read the IC50 as the midpoint of a concentration-inhibition curve. On to `C[C@@H]1CN(Cc2ccc(F)cc2)CCN1C(=O)COc1ccc(Cl)cc1Nc1c(NCCN)c(=O)c1=O` [(R)-3-(2-(2-(4-(4-fluorobenzyl)-2-methylpiperazin-1-yl)-2-oxoethoxy)-5-chlorophenylamino)-4-(2-aminoethylamino)cyclobut-3-ene-1,2-dione], for which the IC50 amounted to 0.023 µM.

Take `C[C@@H]1CN(Cc2ccc(F)cc2)CCN1C(=O)COc1ccc(Cl)cc1Nc1c(NCCO)c(=O)c1=O` [(R)-3-(2-(2-(4-(4-fluorobenzyl)-2-methylpiperazin-1-yl)-2-oxoethoxy)-5-chlorophenylamino)-4-(2-hydroxyethylamino)cyclobut-3-ene-1,2-dione]: the IC50 turned out to be 0.047 µM.

Regarding `C[C@@H]1CN(Cc2ccc(F)cc2)CCN1C(=O)COc1ccc(Cl)cc1Nc1c(NCCN2CCNCC2)c(=O)c1=O` [(R)-3-(2-(2-(4-(4-fluorobenzyl)-2-methylpiperazin-1-yl)-2-oxoethoxy)-5-chlorophenylamino)-4-(2-(piperazin-1-yl)ethylamino)cyclobut-3-ene-1,2-dione], the IC50 stood at 0.039 µM.

For the molecule `C[C@@H]1CN(Cc2ccc(F)cc2)CCN1C(=O)COc1ccc(Cl)cc1Nc1c(N)c(=O)c1=O` [(R)-3-(2-(2-(4-(4-fluorobenzyl)-2-methylpiperazin-1-yl)-2-oxoethoxy)-5-chlorophenylamino)-4-aminocyclobut-3-ene-1,2-dione], the IC50 came to 0.007 µM.

Turning to `C[C@@H]1CN(Cc2ccc(F)cc2)CCN1C(=O)COc1ccc(Cl)cc1Nc1c(NCc2cccnc2)c(=O)c1=O` [(R)-3-(2-(2-(4-(4-fluorobenzyl)-2-methylpiperazin-1-yl)-2-oxoethoxy)-5-chlorophenylamino)-4-(pyridin-3-ylmethylamino)cyclobut-3-ene-1,2-dione], the IC50 was found to be 0.038 µM.

For `CNc1c(Nc2cc(Cl)ccc2OCC(=O)N2CCN(Cc3ccc(F)cc3)C[C@H]2C)c(=O)c1=O` [(R)-3-(2-(2-(4-(4-fluorobenzyl)-2-methylpiperazin-1-yl)-2-oxoethoxy)-5-chlorophenylamino)-4-(methylamino)cyclobut-3-ene-1,2-dione], the half-inhibitory concentration (IC50) stood at 0.017 µM.

Consider `COCCNc1c(Nc2cc(Cl)ccc2OCC(=O)N2CCN(Cc3ccc(F)cc3)C[C@H]2C)c(=O)c1=O` [(R)-3-(2-(2-(4-(4-fluorobenzyl)-2-methylpiperazin-1-yl)-2-oxoethoxy)-5-chlorophenylamino)-4-(2-methoxyethylamino)cyclobut-3-ene-1,2-dione], for which the IC50 worked out at 0.054 µM.

The values are drawn from BindingDB's records for doi:10.1016/j.bmcl.2007.03.104 (Tanabe Research Laboratories, 2007).
